Reference: paper PMC9430770 (Microbiology Spectrum, 2022)

Legend:
C. albicans SN152 = experiment: Galleria mellonella infection model, SN152 strain; format: in vivo, Candida albicans; settings: G. mellonella, 10 mg/kg
Protocol: To assess whether Eno1 is a therapeutic target of BE, we constructed a homozygous deletion strain for the ENO1 gene (eno1/eno1). We then investigated the difference in the antifungal efficacy of BE on the infections caused by the parent strain SN152 and the eno1/eno1 strain in the Galleria mellonella infection model. We divided the G. mellonella into 5 groups, with 10 larvae in each group. All 10 larvae died after a 24-h infection with the SN152 strain, while only 3 larvae died after 24 h when infected with the eno1/eno1 strain; the remaining larvae died within 7 days. Compared with the group infected with the parent strain, the survival time of the group infected with the eno1/eno1 strain was longer (P < 0.01) (Fig. 4A). […]
(§1) FIG 4 Eno1 acts as a therapeutic target of BE. […] Each curve represents a group of 10 larvae (n =10) monitored daily for survival for up to 10 days after infection. […]
(§2) Virulence testing of C. albicans was done in Galleria mellonella as described previously ([56]). […] After growth in YPD media overnight at 30°C and 200 rpm, C. albicans SN152 cells or eno1/eno1 mutant cells were washed with PBS 3 times and diluted to the desired concentration (1 × 10^7 cells/mL) determined by counting with a hemacytometer. […] The death of G. mellonella was assessed daily and analyzed statistically by the Kaplan-Meier method (log-rank test).

hEno1 = biological target: T1, hEno1 (Homo sapiens, UniProt P06733); experiment: Enolase activity analysis (absorbance at 240 nm of PEP); format: biochemical
T1 construct: 6xHis; made in house; host or cells: E. coli BL21(DE3), inferred from 'same procedure' as CaEno1
Protocol: Enolase activity was determined by direct spectrophotometric assay via measuring the increase of absorbance at 240 nm of phosphoenolpyruvate (PEP) as described previously with some modifications ([54]). Briefly, the reaction buffer (pH 7.0) containing 10 mM imidazole, 200 mM KCl, and 0.5 mM MgAc in a final reaction volume of 100 μL was mixed with Eno1 (a final concentration of 30 nM), followed by the mixture of 2-phosphoglycerate (2-PG) (Yuanye Biotech Shanghai) with a final concentration of 1 mM. The enolase activity of Eno1 was evaluated by measuring the increase of absorbance (OD240) at room temperature for 10 min. […] The well-known enolase inhibitor sodium fluoride (NaF; Sangon Biotech) was initiated from 5 mM and used as a control ([29]). Inhibition curves were fitted by nonlinear regression (four parameters) using the GraphPad Prism software.

Candida albicans 103 = experiment: Checkerboard microdilution assay with fluconazole; format: cell-based
From the text: Ta b l e S3. Interaction of fluconazole ( FLC) and BE probes against isolates of Candida albicans
Compounds Molecular structure Individual action Interaction MIC(μg/ mL ) FICI Mode of
MIC (μg /mL) FLC Compounds interaction

[1] = system: C. albicans eno1/eno1 mutant strain; experiment: Galleria mellonella infection model, eno1/eno1 strain; format: in vivo, Candida albicans; settings: G. mellonella, 10 mg/kg
Protocol: To assess whether Eno1 is a therapeutic target of BE, we constructed a homozygous deletion strain for the ENO1 gene (eno1/eno1). We then investigated the difference in the antifungal efficacy of BE on the infections caused by the parent strain SN152 and the eno1/eno1 strain in the Galleria mellonella infection model. We divided the G. mellonella into 5 groups, with 10 larvae in each group. All 10 larvae died after a 24-h infection with the SN152 strain, while only 3 larvae died after 24 h when infected with the eno1/eno1 strain; the remaining larvae died within 7 days. Compared with the group infected with the parent strain, the survival time of the group infected with the eno1/eno1 strain was longer (P < 0.01) (Fig. 4A). […] The survival rate of larvae in the BE (10 mg/kg of body weight)-treated, SN152 strain-infected group was extended by 30%, compared with that in the group infected with the SN152 strain but without antifungal drug treatment (P < 0.001) (Fig. 4B). […] All 10 larvae in the BE-treated group died within 6 days, and all 10 larvae without BE treatment were killed within 7 days (Fig. 4C). However, FLC (10 mg/kg) can extend the survival rate of larvae infected by the eno1/eno1 strain by 60% (P < 0.01) (Fig. 4D) compared with the group infected with the eno1/eno1 strain without antifungal drug treatment.
as §1, §2

C. albicans SC5314 = experiment: Spot assay on solid YPD or YPG plates containing BE; format: cell-based, Candida albicans; settings: 48 h, 30°C
Protocol: To test whether BE antifungal activity in C. albicans as well as in mammalian cells was carbon source dependent ([27]), we investigated the activity of BE in spot assays on both solid yeast extract-peptone-dextrose (YPD) (containing 20 mg/mL glucose) and solid YPG (containing 2% [vol/vol] glycerol) media.
FIG 1 The antifungal activity of BE depends on the carbon source. The overnight-cultured C. albicans SC5314 cells were diluted to 1 × 10^7 cells/mL and used as the initial concentration for four times of 10-fold dilution. Subsequently, 5 μL of a 10-fold dilution series was spotted onto YPD or YPG solid plates containing the indicated different concentrations of BE. After 48 h of incubation at 30°C, pictures of the growth of cells were taken.
The spotting assay was performed as described previously ([50]). Briefly, after grown overnight, mid-log-phase cultures of strains required for experimental conditions were adjusted to 1 × 10^7 cells/mL using a hemacytometer, then were 1:10 serially diluted in sterile PBS, and were spotted onto indicated plates with an indicated concentration of BE. After 48 h of incubation at 30°C, pictures of the growth of cells were taken.

T1 sequence (P06733 whole entry): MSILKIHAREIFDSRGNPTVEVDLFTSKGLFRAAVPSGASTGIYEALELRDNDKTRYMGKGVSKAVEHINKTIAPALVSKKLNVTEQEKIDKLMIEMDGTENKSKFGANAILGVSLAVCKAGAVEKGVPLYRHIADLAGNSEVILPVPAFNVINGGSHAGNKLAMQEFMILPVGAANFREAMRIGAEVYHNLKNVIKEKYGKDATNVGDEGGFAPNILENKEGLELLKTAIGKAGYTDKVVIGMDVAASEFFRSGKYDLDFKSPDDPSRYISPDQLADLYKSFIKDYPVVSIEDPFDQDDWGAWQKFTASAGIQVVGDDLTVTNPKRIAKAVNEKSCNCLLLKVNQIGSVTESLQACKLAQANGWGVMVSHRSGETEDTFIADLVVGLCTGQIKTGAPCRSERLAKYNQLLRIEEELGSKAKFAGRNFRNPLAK

O=c1cc(-c2ccccc2)oc2cc(O)c(O)c(O)c12 [BE, Baicalein]
survival rate of larvae extended versus infected group without drug treatment (C. albicans SN152): 30%
IC50 (hEno1): 91.3 ± 3.1 µM
Interaction MIC FLC (Candida albicans 103; MIC of FLC in combination with the compound): 1 µg/mL
Interaction MIC Compounds (Candida albicans 103; MIC of the compound in combination with FLC): 1 µg/mL
FICI (Candida albicans 103; combination with FLC): 0.039
Mode of interaction (Candida albicans 103; combination with FLC, FLC-resistant C. albicans): Synergism
Individual action MIC (Candida albicans 103; compound alone): 32 µg/mL
survival rate of larvae extended versus infected group without drug treatment [1]: no significant effect
time within which all 10 larvae died ([1]; eno1/eno1-infected): ≤ 6 days
antifungal activity (spot assay) (C. albicans SC5314; 64 μg/mL BE, solid YPD medium (20 mg/mL glucose)): had antifungal activity
antifungal activity (spot assay) (C. albicans SC5314; 64 μg/mL BE, solid YPG medium (2% glycerol)): not in solid YPG medium
antifungal activity (spot assay) (C. albicans SC5314; 128 μg/mL BE, solid YPD medium): potent antifungal activity
growth of C. albicans (spot assay) (C. albicans SC5314; 128 μg/mL BE, solid YPG medium): could still grow
